Assay results taken from patent publication US11225505B2, “Antimicrobial polymyxin derivative compounds” (MONASH UNIVERSITY, priority 2015, dated 2022).
Values after ≈ are worked out from the molar mass of the structure shown. Where a SMILES comes first, the peptide text is derived from it. Bridges are numbered along the chain shown (N, C = ends). [ ]: non-standard residue; d: D form. The star is where a group is joined. Pyrrole2carbonyl(4,5-Br2) = O=C(c1cc(Br)c(Br)[nH]1)*; X39 = O=C(c1noc2ccccc12)*; X67 = O=C(c1cc(Br)sc1Br)*; Dab = NCC[C@H](N)C(=O)O; X61 = O=C(c1ccc(Br)s1)*; Abu = CC[C@H](N)C(=O)O; Dap = NC[C@H](N)C(=O)O

Legend:
Type in all cases: cell-based
[1] = system: Pseudomonas aeruginosa FADDI-PA01; conditions: FADDI-
Outline: (§1)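 In cation-adjusted Mueller-Hinton broth, each lipopeptide (TFA salt) was titrated against the bacteria by microdilution and the minimum inhibitory concentration recorded per CLSI M100-S24; polymyxin B sulphate ran in parallel.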

[2] = system: Pseudomonas aeruginosa FADDI-PA038; conditions: FADDI-PA038
Outline: as §1

[3] = system: Acinetobacter baumannii FADDI-AB034; conditions: FADDI-AB034
Outline: as §1

[4] = system: Klebsiella pneumoniae FADDI-KP032; conditions: FADDI-KP032
Outline: as §1

[5] = system: Klebsiella pneumoniae Kp BM1; conditions: Kp BM1
Outline: (§2)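 Following CLSI procedure M100-S24, minimum inhibitory concentrations of trifluoroacetate lipopeptides are measured in cation-adjusted Mueller-Hinton medium by broth microdilution, alongside a polymyxin B sulphate control.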

[6] = system: Acinetobacter baumannii ATCC 17978; conditions: ATCC 17978
Outline: as §1

[7] = system: Enterobacter cloacae FADDI-EC006; conditions: FADDI-EC006
Outline: as §1

[8] = system: Enterobacter cloacae FADDI-EC001; conditions: FADDI-EC001
Outline: as §2

[9] = system: Klebsiella pneumoniae FADDI-KP022; conditions: FADDI-KP022
Outline: as §1

[10] = system: Pseudomonas aeruginosa ATCC 27853; conditions: ATCC 27853
Outline: as §1

[11] = system: Enterobacter cloacae FADDI-EC003; conditions: FADDI-EC003
Outline: as §1

[12] = system: Pseudomonas aeruginosa FADDI-PA022; conditions: FADDI-PA022
Outline: as §1

[13] = system: Acinetobacter baumannii FADDI-AB030; experiment: microbe, parasite or virus in culture; conditions: FADDI-AB030
Outline: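 Lipopeptide TFA salts tested against the multidrug-resistant clinical isolate by CLSI (M100-S24) broth microdilution in cation-adjusted Mueller-Hinton broth, with polymyxin B sulphate as control; MIC read.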

SMILES | Minimum inhibitory concentration [1] | Minimum inhibitory concentration [2] | Minimum inhibitory concentration [3] | Minimum inhibitory concentration [4] | Minimum inhibitory concentration [5] | Minimum inhibitory concentration [6] | Minimum inhibitory concentration [7] | Minimum inhibitory concentration [8] | Minimum inhibitory concentration [9] | Minimum inhibitory concentration [10] | Minimum inhibitory concentration [11] | Minimum inhibitory concentration [12] | Minimum inhibitory concentration [13]
CC[C@@H]1NC(=O)[C@@H](CC(C)C)NC(=O)[C@H](CCN)NC(=O)[C@@H](NC(=O)[C@H](CN)NC(=O)[C@@H](NC(=O)[C@H](CCN)NC(=O)c2noc3ccccc23)[C@@H](C)O)CCNC(=O)[C@H]([C@@H](C)O)NC(=O)[C@H](CCN)NC(=O)[C@H](CCN)NC1=O [Compound 75] (X39-[Dab]T[Dap][Dab][Dab][dL][Abu][Dab][Dab]T; lactam 4-C) | 0.5 µg/mL (≈ 0.442 µM) | 1 µg/mL (≈ 0.883 µM) | 0.5 µg/mL (≈ 0.442 µM) | 0.25 µg/mL (≈ 0.221 µM) | 0.25 µg/mL (≈ 0.221 µM) | 1 µg/mL (≈ 0.883 µM) | 1 µg/mL (≈ 0.883 µM) | <0.125 µg/mL | <0.125 µg/mL | 0.5 µg/mL (≈ 0.442 µM) | <0.125 µg/mL | 0.5 µg/mL (≈ 0.442 µM) | 0.5 µg/mL (≈ 0.442 µM)
CC[C@@H]1NC(=O)[C@@H](CC(C)C)NC(=O)[C@H](CCN)NC(=O)[C@@H](NC(=O)[C@H](CN)NC(=O)[C@@H](NC(=O)[C@H](CCN)NC(=O)c2cc(Br)sc2Br)[C@@H](C)O)CCNC(=O)[C@H]([C@@H](C)O)NC(=O)[C@H](CCN)NC(=O)[C@H](CCN)NC1=O [Compound 76] (X67-[Dab]T[Dap][Dab][Dab][dL][Abu][Dab][Dab]T; lactam 4-C) | 0.25 µg/mL (≈ 0.199 µM) | 0.5 µg/mL (≈ 0.398 µM) | <0.125 µg/mL | <0.125 µg/mL | <0.125 µg/mL | <0.125 µg/mL | <0.125 µg/mL | 0.25 µg/mL (≈ 0.199 µM) | <0.125 µg/mL | 0.25 µg/mL (≈ 0.199 µM) | <0.125 µg/mL | 0.25 µg/mL (≈ 0.199 µM) | 0.25 µg/mL (≈ 0.199 µM)
CC[C@@H]1NC(=O)[C@@H](CC(C)C)NC(=O)[C@H](CCN)NC(=O)[C@@H](NC(=O)[C@H](CN)NC(=O)[C@@H](NC(=O)[C@H](CCN)NC(=O)c2cc(Br)c(Br)[nH]2)[C@@H](C)O)CCNC(=O)[C@H]([C@@H](C)O)NC(=O)[C@H](CCN)NC(=O)[C@H](CCN)NC1=O [Compound 77] ({Pyrrole2carbonyl(4,5-Br2)}-[Dab]T[Dap][Dab][Dab][dL][Abu][Dab][Dab]T; lactam 4-C) | 0.25 µg/mL (≈ 0.202 µM) | 1 µg/mL (≈ 0.808 µM) | 0.25 µg/mL (≈ 0.202 µM) | 0.25 µg/mL (≈ 0.202 µM) | <0.125 µg/mL | 0.5 µg/mL (≈ 0.404 µM) | <0.125 µg/mL | 0.25 µg/mL (≈ 0.202 µM) | <0.125 µg/mL | 0.25 µg/mL (≈ 0.202 µM) | 0.25 µg/mL (≈ 0.202 µM) | 0.5 µg/mL (≈ 0.404 µM) | 0.25 µg/mL (≈ 0.202 µM)
CC[C@@H]1NC(=O)[C@@H](CC(C)C)NC(=O)[C@H](CCN)NC(=O)[C@@H](NC(=O)[C@H](CN)NC(=O)[C@@H](NC(=O)[C@H](CCN)NC(=O)c2ccc(Br)s2)[C@@H](C)O)CCNC(=O)[C@H]([C@@H](C)O)NC(=O)[C@H](CCN)NC(=O)[C@H](CCN)NC1=O [Compound 78] (X61-[Dab]T[Dap][Dab][Dab][dL][Abu][Dab][Dab]T; lactam 4-C) | <0.125 µg/mL | 0.5 µg/mL (≈ 0.425 µM) | 1 µg/mL (≈ 0.85 µM) | 0.5 µg/mL (≈ 0.425 µM) | <0.125 µg/mL | 0.25 µg/mL (≈ 0.213 µM) | 0.25 µg/mL (≈ 0.213 µM) | 0.25 µg/mL (≈ 0.213 µM) | 0.25 µg/mL (≈ 0.213 µM) | 0.25 µg/mL (≈ 0.213 µM) | <0.125 µg/mL | 0.25 µg/mL (≈ 0.213 µM) | 0.5 µg/mL (≈ 0.425 µM)
